Patent US5540861A (priority 1994, dated 1996)

What was measured:
in vivo = conditions: po
[1] = in vivo

Row | Compound | LD50 (in vivo) [mg/kg] | ORAL LD50 [1]
1 | CCCCCCCCCc1cc([N+](=O)[O-])c(O)c([N+](=O)[O-])c1 [DNNP (C9), 2,6dinitro-4-nonylphenol] | 50 | –
2 | [Cl-].[Na+] [Sodium Chloride] | – | 3,000 mg/kg
3 | CCCCc1cc([N+](=O)[O-])c(O)c([N+](=O)[O-])c1 [DNBP (C4), 2,6dinitro-4-butylphenol] | 30 | –
4 | CCO [Ethanol] | – | 7,080 mg/kg
